Measured values published in patent publication US20150166505A1, “PYRIDINYL-SUBSTITUTED PYRAZOLYL CARBOXAMIDES” (GRÜNENTHAL GMBH, priority 2013, published 2015).
Like-named read-outs stand apart in the source and are kept apart here.

Experiments:
[1] = test system: Interleukin-2 (IL-2) production/release in Jurkat T cell line; assay: Jurkat IL-2 Production Assay; format: cell-based; conditions: Homo sapiens; Jurkat T cells, PHA stimulation 22 hours
Description: Jurkat IL-2 Production Assay
The effect of compounds of the invention on Interleukin-2 (IL-2) production/release was tested in the Jurkat T cell line (ECACC) clone E6-1. Jurkat T cells were cultured in DMEM/F12/Glutamax (Gibco) containing 10% FCS (Gibco), and maintained at 37° C., 5% CO2. Cell were split twice a week [5*10^6 (Mon-Thu) and 1*10^7 (Thu-Mon) cells/50 ml medium in T-175 ZK culture flasks, respectively]. Prior to experiment, cells were seeded on 96 well plates (Cellstar 96 Well; Cat No. 655180, Greiner bio-one) at a density of 5*10^5 cells/well in DMEM/F12/Glutamax (Gibco) containing 10% FCS (Gibco), and incubated for 60 min at 37° C., 5% CO2. Subsequently, compounds were added and cells were allowed to incubate for 30 min at 37° C., 5% CO2. Cells were then stimulated with 15 μg/ml Phytohemagglutinin (PHA; Sigma) for 22 hours at 37° C., 5% CO2. Before sampling of the supernatants, cells were spun down (200*g/5 min/RT). The amount of IL-2 released into the supernatant was quantified with the human IL-2 AlphaLisa kit (Perkin Elmer) according to manufacturer's instructions. Luminescence proximity measurements were carried out in the Synergy H4 reader (BioTek) employing the fluorescence setting of the reader (ex: 680/30 nm; em: 620/40 nm). Inhibition of IL-production/release in/from Jurkat T cells was quantified as follows: Zero percent inhibition (MAX) was defined as the [IL-2] determined in supernatants derived from cells to which PHA & DMSO-only had been added instead of compound. Hundred percent inhibition (MIN) was defined as the [IL-2] determined in supernatants derived from cells that had been pre-treated with 1 μM CyclosporineA (Sigma) before the addition of 15 μg/ml PHA. For routine IC50 determinations of compounds, 8 concentrations of a serial dilution (1:3.16) were tested, starting off from 10 μM.

[2] = biological target: T1, CRAC channel (endogenous SOC in HEK293 cells) (Homo sapiens, UniProt Q96D31); assay: HEK Calcium Influx Assay (FLIPR); format: cell-based
T1 construct: endogenous in cells; host or cells: HEK293 (ECACC)
Description: The effect of compounds of the invention on intracellular [Ca^2+] was tested in the HEK293 cell line (ECACC). HEK293 cells were cultured in DMEM/F12/Glutamax (Gibco) containing 10% FCS (Gibco), and maintained at 37° C., 5% CO2. Cell were split twice a week [3*10^6 (Mon-Thu) and 1*10^6 (Thu-Mon) cells/50 ml medium in T-175 ZK culture flasks, respectively]. Twenty four hours pre-experiment, cells were seeded on 96 well plates (Poly-D-Lysine 96well Black/Clear Plate, BD Biocoat REF 356640) at a density of 40,000 cells/well in DMEM/F12 (Gibco) containing 10% FCS (Gibco), and maintained at 37° C., 5% CO2. Prior to store-depletion, cell culture medium was removed and cells were loaded with the a Calcium-sensitive fluorescent dye comprised within the Calcium-4-assay kit (Molecular Devices) in nominally Ca^2+-free HBS buffer (140 mM NaCl, 4 mM KCl, 0.2 mM MgCl2, 11 mM D-glucose, and 10 mM HEPES, pH 7.4) according to manufacturer's instruction for 60 min at 37° C., 5% CO2. Passive depletion of intracellular Ca^2+-stores was then triggered by employing the SERCA inhibitor thapsigargin (2 μM final) for 10 min in the dark (RT). To prevent immediate Ca^2+-entry via the activated Store-operated channels (SOCs), cells were maintained in Ca^2+-free HBS buffer comprising 100 μM EGTA during store-depletion. Intracellular changes in [Ca^2+] were subsequently monitored with the FLIPR device (Molecular Devices). In brief, baseline imaging post-store depletion was allowed for 1 min before adjusting the extracellular buffer to 3 mM CaCl2. Increases in intracellular [Ca^2+] due to pre-activated SOC channels were monitored for 15 min until intracellular Ca^2+ levels had declined into a steady-state. Finally, compounds were administered and Ca^2+ signals were recorded for additional 10 min. Inhibition of endogenous SOC in HEK293 cells was quantified employing the average Ca^2+ signal measured from 9.5-10 min post-administration. Zero percent inhibition (MAX) was defined as the Ca^2+ signal recorded from wells to which DMSO-only had been added instead of compound. Hundred percent inhibition (MIN) was defined as the signal obtained from wells in which cells haven't been treated with TG prior to Ca^2+ addition and to which DMSO-only had been added instead of compound. For routine IC50 determinations of compounds, 8 concentrations of a serial dilution (1:3.16) were tested, starting off from 10 μM. Reliable IC50's could consequently be determined only, if they were at least sub 2.5-3 μM.

[3] = thapsigargin store depletion, read-out: % inhib. [@ 10 μM] FLIPR

T1 sequence (Q96D31 whole entry): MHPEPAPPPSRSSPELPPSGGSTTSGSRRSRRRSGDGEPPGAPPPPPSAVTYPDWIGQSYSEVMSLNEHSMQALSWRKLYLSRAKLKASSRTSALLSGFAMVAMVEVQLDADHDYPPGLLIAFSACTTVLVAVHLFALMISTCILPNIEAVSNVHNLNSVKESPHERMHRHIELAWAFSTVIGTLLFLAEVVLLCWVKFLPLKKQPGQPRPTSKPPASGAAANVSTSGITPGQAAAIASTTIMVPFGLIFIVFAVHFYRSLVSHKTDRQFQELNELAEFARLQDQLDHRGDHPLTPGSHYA

| SMILES | IC50 [1] [µM] | inhibition at 10 µM [2, 3] [%] | inhibition at 10 µM ([2]; numeric values of Table 2, read-out: inhib. [@ 10 μM] FLIPR) [%] |
| --- | --- | --- | --- |
| CCOc1ncc(-c2cc(C(=O)Nc3c(F)cccc3F)nn2C)c(C)c1F [Example 35, N-(2,6-Difluoro-phenyl)-5-(6-ethoxy-5-fluoro-4-methyl-pyridin-3-yl)-1-methyl-1H-pyrazole-3-carboxylic acid amide] | 1 to 5 | < 50 | – |
| CCOc1ncc(-c2cc(C(=O)Nc3c(F)cncc3F)nn2C)c(C)c1F [Example 36, N-(3,5-Difluoro-pyridin-4-yl)-5-(6-ethoxy-5-fluoro-4-methyl-pyridin-3-yl)-1-methyl-1H-pyrazole-3-carboxylic acid amide] | 1 to 5 | 50 to 70 | – |
| Cc1cc(N(C)C)ncc1-c1cc(C(=O)Nc2c(F)cccc2F)nn1C [Example 37, N-(2,6-Difluoro-phenyl)-5-(6-dimethylamino-4-methyl-pyridin-3-yl)-1-methyl-1H-pyrazole-3-carboxylic acid amide] | 1 to 5 | > 70 | 98 |
| COc1cc(OC(F)F)ncc1-c1cc(C(=O)Nc2c(F)cccc2F)nn1C [Example 43, 5-[6-(Difluoro-methoxy)-4-methoxy-pyridin-3-yl]-N-(2,6-difluoro-phenyl)-1-methyl-1H-pyrazole-3-carboxylic acid amide] | < 0.5 | > 70 | – |
| COc1cc(OC(F)F)ncc1-c1cc(C(=O)Nc2c(F)cncc2F)nn1C [Example 44, 5-[6-(Difluoro-methoxy)-4-methoxy-pyridin-3-yl]-N-(3,5-difluoro-pyridin-4-yl)-1-methyl-1H-pyrazole-3-carboxylic acid amide] | < 0.5 | > 70 | – |
| COc1cc(OCC2CC2)ncc1-c1cc(C(=O)Nc2c(F)cccc2F)nn1C [Example 45, 5-[6-(Cyclopropyl-methoxy)-4-methoxy-pyridin-3-yl]-N-(2,6-difluoro-phenyl)-1-methyl-1H-pyrazole-3-carboxylic acid amide] | < 0.5 | > 70 | – |
| COc1cc(OCC(F)(F)F)ncc1-c1cc(C(=O)Nc2c(F)cccc2F)nn1C [Example 46, N-(2,6-Difluoro-phenyl)-5-[4-methoxy-6-(2,2,2-trifluoro-ethoxy)-pyridin-3-yl]-1-methyl-1H-pyrazole-3-carboxylic acid amide] | < 0.5 | > 70 | – |
| CCOc1cc(OC(F)F)c(-c2cc(C(=O)Nc3c(F)cccc3F)nn2C)cn1 [Example 47, 5-[4-(Difluoro-methoxy)-6-ethoxy-pyridin-3-yl]-N-(2,6-difluoro-phenyl)-1-methyl-1H-pyrazole-3-carboxylic acid amide] | < 0.5 | > 70 | – |
| Cn1nc(C(=O)Nc2c(F)cccc2F)cc1-c1cnc(C2CC2)cc1C(F)(F)F [Example 48, 5-[6-Cyclopropyl-4-(trifluoromethyl)-pyridin-3-yl]-N-(2,6-difluoro-phenyl)-1-methyl-1H-pyrazole-3-carboxylic acid amide] | 0.5 to 1 | > 70 | – |
| CCOc1cc(OC2COC2)c(-c2cc(C(=O)Nc3c(F)cccc3F)nn2C)cn1 [Example 49, N-(2,6-Difluoro-phenyl)-5-[6-ethoxy-4-(oxetan-3-yloxy)-pyridin-3-yl]-1-methyl-1H-pyrazole-3-carboxylic acid amide] | 1 to 5 | 50 to 70 | – |
| COc1cc(OCC2COC2)ncc1-c1cc(C(=O)Nc2c(F)cccc2F)nn1C [Example 51, N-(2,6-Difluoro-phenyl)-5-[4-methoxy-6-(oxetan-3-yl-methoxy)-pyridin-3-yl]-1-methyl-1H-pyrazole-3-carboxylic acid amide] | 1 to 5 | 50 to 70 | – |
| COc1cc(C2CC2)ncc1-c1cc(C(=O)Nc2c(F)cccc2F)nn1C [Example 54, 5-(6-Cyclopropyl-4-methoxy-pyridin-3-yl)-N-(2,6-difluoro-phenyl)-1-methyl-1H-pyrazole-3-carboxylic acid amide] | < 0.5 | > 70 | – |
